Reference: PubChem BioAssay AID1963959 (Molecular Pharmacology Branch, DTP, NCI, 2024)

System: T-47D spheroids with HUVEC/MSC, viability
Test: Anticancer human tumor T-47D cell line growth inhibition [PI3K];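 also: spheroids exposed to agents for seven days before reading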;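 as to viability, T/C: percent of DMSO vehicle control luminescence so 100% = untreated growth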
Details: for viability, T/C: stronger effect = lower value
Outline: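 Spheroid viability read-out. Co-cultures contained the tumor line plus HUVEC and human MSCs. Each agent was paired with a PI3K inhibitor (inavolisib, alpelisib, duvelisib, copanlisib) across half-log dilutions starting at clinical Cmax, or at 10 microM when Cmax was unknown.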

[1] = curve of first compound, second compound 0.0316 µM
[2] = curve of first compound, second compound 0.1 µM
[3] = curve of first compound, second compound 0.316 µM
[4] = curve of first compound, second compound 1 µM
[5] = curve of first compound, second compound 3.16 µM
[6] = curve of first compound, second compound 10 µM
[7] = second compound 0.0316 µM, first compound 0.0316 µM
[8] = second compound 0.0316 µM, first compound 0.1 µM
[9] = second compound 0.0316 µM, first compound 0.316 µM
[10] = second compound 0.0316 µM, first compound 1 µM
[11] = second compound 0.0316 µM, first compound 3.16 µM
[12] = second compound 0.0316 µM, first compound 10 µM
[13] = second compound 0.1 µM, first compound 0.0316 µM
[14] = second compound 0.1 µM, first compound 0.1 µM
[15] = second compound 0.1 µM, first compound 0.316 µM
[16] = second compound 0.1 µM, first compound 1 µM
[17] = second compound 0.1 µM, first compound 3.16 µM
[18] = second compound 0.1 µM, first compound 10 µM
[19] = second compound 0.316 µM, first compound 0.0316 µM
[20] = second compound 0.316 µM, first compound 0.1 µM
[21] = second compound 0.316 µM, first compound 0.316 µM
[22] = second compound 0.316 µM, first compound 1 µM
[23] = second compound 0.316 µM, first compound 3.16 µM
[24] = second compound 0.316 µM, first compound 10 µM
[25] = second compound 1 µM, first compound 0.0316 µM
[26] = second compound 1 µM, first compound 0.1 µM
[27] = second compound 1 µM, first compound 0.316 µM
[28] = second compound 1 µM, first compound 1 µM
[29] = second compound 1 µM, first compound 3.16 µM
[30] = second compound 1 µM, first compound 10 µM
[31] = second compound 3.16 µM, first compound 0.0316 µM
[32] = second compound 3.16 µM, first compound 0.1 µM
[33] = second compound 3.16 µM, first compound 0.316 µM
[34] = second compound 3.16 µM, first compound 1 µM
[35] = second compound 3.16 µM, first compound 3.16 µM
[36] = second compound 3.16 µM, first compound 10 µM
[37] = second compound 10 µM, first compound 0.0316 µM
[38] = second compound 10 µM, first compound 0.1 µM
[39] = second compound 10 µM, first compound 0.316 µM
[40] = second compound 10 µM, first compound 1 µM
[41] = second compound 10 µM, first compound 3.16 µM
[42] = second compound 10 µM, first compound 10 µM

Question: C#Cc1c(F)ccc2cc(O)cc(-c3ncc4c(N5CC6CCC(C5)N6)nc(OCC56CCCN5CC(F)C6)nc4c3F)c12 (configuration not stated) + Cc1nc(NC(=O)N2CCCC2C(N)=O)sc1-c1ccnc(C(C)(C)C(F)(F)F)c1 was tested. Which IC50 [1] did it give?
Answer: > 10 µM

Question: What about the IC50 [2] of the same compound?
Answer: > 10 µM

Question: What about the IC50 [3] of the same compound?
Answer: > 10 µM

Question: What about the IC50 [4] of the same compound?
Answer: > 10 µM

Question: And the IC50 [5]?
Answer: > 10 µM

Question: What about the IC50 [6] of the same compound?
Answer: < 0.0316 µM

Question: What about the viability, T/C [7] of the same compound?
Answer: 94.8%

Question: And the viability, T/C [8]?
Answer: 91.4%

Question: And the viability, T/C [9]?
Answer: 99%

Question: What about the viability, T/C [10] of the same compound?
Answer: 87.8%

Question: And the viability, T/C [11]?
Answer: 99.6%

Question: What about the viability, T/C [12] of the same compound?
Answer: 74.8%

Question: What about the viability, T/C [13] of the same compound?
Answer: 98.8%

Question: And the viability, T/C [14]?
Answer: 72.2%

Question: And the viability, T/C [15]?
Answer: 73.4%

Question: And the viability, T/C [16]?
Answer: 80.1%

Question: And the viability, T/C [17]?
Answer: 103%

Question: And the viability, T/C [18]?
Answer: 89.4%

Question: And the viability, T/C [19]?
Answer: 90.5%

Question: What about the viability, T/C [20] of the same compound?
Answer: 71.2%

Question: And the viability, T/C [21]?
Answer: 80.3%

Question: What about the viability, T/C [22] of the same compound?
Answer: 97.8%

Question: What about the viability, T/C [23] of the same compound?
Answer: 86%

Question: What about the viability, T/C [24] of the same compound?
Answer: 84.5%

Question: And the viability, T/C [25]?
Answer: 74.2%

Question: What about the viability, T/C [26] of the same compound?
Answer: 84.7%

Question: What about the viability, T/C [27] of the same compound?
Answer: 69.5%

Question: And the viability, T/C [28]?
Answer: 82.7%

Question: And the viability, T/C [29]?
Answer: 82.8%

Question: And the viability, T/C [30]?
Answer: 77.8%

Question: And the viability, T/C [31]?
Answer: 63.4%

Question: And the viability, T/C [32]?
Answer: 65.7%

Question: And the viability, T/C [33]?
Answer: 61.1%

Question: And the viability, T/C [34]?
Answer: 54%

Question: And the viability, T/C [35]?
Answer: 54.2%

Question: And the viability, T/C [36]?
Answer: 60.8%

Question: What about the viability, T/C [37] of the same compound?
Answer: 38.4%

Question: What about the viability, T/C [38] of the same compound?
Answer: 40.4%

Question: And the viability, T/C [39]?
Answer: 40.8%

Question: What about the viability, T/C [40] of the same compound?
Answer: 31.7%

Question: What about the viability, T/C [41] of the same compound?
Answer: 33%

Question: What about the viability, T/C [42] of the same compound?
Answer: 40.1%

Question: What does the source list for CC(C)NCC(C(=O)N1CCN(c2ncnc3c2C(C)CC3O)CC1)c1ccc(Cl)cc1 (configuration not stated) + COc1c(OCCCN2CCOCC2)ccc2c3n(c(=NC(=O)c4cnc(N)nc4)nc12)CCN3?
Answer: IC50 (curve of first compound, second compound 0.00316 µM): 5.28 µM; IC50 (curve of first compound, second compound 0.01 µM): 1.6 µM; IC50 [1]: 0.324 µM; IC50 [2]: < 0.0316 µM; IC50 [3]: < 0.0316 µM; IC50 [4]: < 0.0316 µM; viability, T/C (second compound 0.00316 µM, first compound 0.0316 µM): 92.8%; viability, T/C (second compound 0.00316 µM, first compound 0.1 µM): 71%; viability, T/C (second compound 0.00316 µM, first compound 0.316 µM): 74.3%; viability, T/C (second compound 0.00316 µM, first compound 1 µM): 64.8%; viability, T/C (second compound 0.00316 µM, first compound 3.16 µM): 50.7%; viability, T/C (second compound 0.00316 µM, first compound 10 µM): 45.9%; viability, T/C (second compound 0.01 µM, first compound 0.0316 µM): 90.7%; viability, T/C (second compound 0.01 µM, first compound 0.1 µM): 74.2%; viability, T/C (second compound 0.01 µM, first compound 0.316 µM): 64%; viability, T/C (second compound 0.01 µM, first compound 1 µM): 53.6%; viability, T/C (second compound 0.01 µM, first compound 3.16 µM): 45.3%; viability, T/C (second compound 0.01 µM, first compound 10 µM): 38.8%; viability, T/C [7]: 69.8%; viability, T/C [8]: 70.9%; viability, T/C [9]: 50.1%; viability, T/C [10]: 45.2%; viability, T/C [11]: 40.6%; viability, T/C [12]: 38.3%; viability, T/C [13]: 46.5%; viability, T/C [14]: 40.7%; viability, T/C [15]: 34.3%; viability, T/C [16]: 30.4%; viability, T/C [17]: 30.2%; viability, T/C [18]: 26.1%; viability, T/C [19]: 17.6%; viability, T/C [20]: 18.4%; viability, T/C [21]: 16%; viability, T/C [22]: 17.4%; viability, T/C [23]: 15.1%; viability, T/C [24]: 15.6%; viability, T/C [25]: 5.88%; viability, T/C [26]: 5.08%; viability, T/C [27]: 4.99%; viability, T/C [28]: 5.31%; viability, T/C [29]: 4.66%; viability, T/C [30]: 6.36%

Question: Which results are given for Cn1ncc(Cl)c1-c1cc(C(=O)NC(CN)Cc2cccc(F)c2)sc1Cl (configuration not stated) + Cc1nc(NC(=O)N2CCCC2C(N)=O)sc1-c1ccnc(C(C)(C)C(F)(F)F)c1?
Answer: IC50 [1]: > 10 µM; IC50 [2]: > 10 µM; IC50 [3]: > 10 µM; IC50 [4]: > 10 µM; IC50 [5]: > 10 µM; IC50 [6]: < 0.0316 µM; viability, T/C [7]: 107%; viability, T/C [8]: 88.1%; viability, T/C [9]: 83.8%; viability, T/C [10]: 64.8%; viability, T/C [11]: 64.9%; viability, T/C [12]: 63.3%; viability, T/C [13]: 88.8%; viability, T/C [14]: 93.2%; viability, T/C [15]: 80.3%; viability, T/C [16]: 60%; viability, T/C [17]: 55.8%; viability, T/C [18]: 65.3%; viability, T/C [19]: 88.1%; viability, T/C [20]: 69.8%; viability, T/C [21]: 75%; viability, T/C [22]: 57.8%; viability, T/C [23]: 60.7%; viability, T/C [24]: 66.8%; viability, T/C [25]: 70%; viability, T/C [26]: 75.9%; viability, T/C [27]: 67.7%; viability, T/C [28]: 53.9%; viability, T/C [29]: 64.6%; viability, T/C [30]: 65.3%; viability, T/C [31]: 58.5%; viability, T/C [32]: 59.4%; viability, T/C [33]: 48.9%; viability, T/C [34]: 49.7%; viability, T/C [35]: 43.9%; viability, T/C [36]: 61.8%; viability, T/C [37]: 35.1%; viability, T/C [38]: 30%; viability, T/C [39]: 33.3%; viability, T/C [40]: 32.1%; viability, T/C [41]: 39.7%; viability, T/C [42]: 50.5%

Question: For Cn1ncc(Cl)c1-c1cc(C(=O)NC(CN)Cc2cccc(F)c2)sc1Cl (configuration not stated), which viability, T/C (compound 0.0316 µM) is on record?
Answer: 102% [middle of 4 runs]

Question: What about the viability, T/C (compound 0.316 µM) of the same compound?
Answer: 79.4% [middle of 4 runs]

Question: What about the viability, T/C (compound 1 µM) of the same compound?
Answer: 81.8% [middle of 4 runs]

Question: And the viability, T/C (compound 3.16 µM)?
Answer: 70.3% [middle of 4 runs]

Question: What about the viability, T/C (compound 10 µM) of the same compound?
Answer: 89% [middle of 4 runs]

Question: What about the IC50 (curve of compound) of the same compound?
Answer: > 10 µM
